Reference: ChEMBL document CHEMBL4354872, “Use of Non-Natural Amino Acids for the Design and Synthesis of a Selective, Cell-Permeable MALT1 Activity-Based Probe” (J Med Chem, 2020)
Calls of active or inactive are those of the source. No cut-off for these calls is given here.

Key:
[1] = target: T1, Mucosa-associated lymphoid tissue lymphoma translocation protein 1 (Homo sapiens, UniProt Q9UDY8); assay: Inhibition of […] wild type human N-terminal GST-tagged MALT1 catalytic domain (325 to 760 residues) expressed in Escherichia coli BL21 (DE3) using Ac-LVPipR-ACC as substrate measured after 2 hrs by microplate reader assay
T1 sequence (Q9UDY8 whole entry): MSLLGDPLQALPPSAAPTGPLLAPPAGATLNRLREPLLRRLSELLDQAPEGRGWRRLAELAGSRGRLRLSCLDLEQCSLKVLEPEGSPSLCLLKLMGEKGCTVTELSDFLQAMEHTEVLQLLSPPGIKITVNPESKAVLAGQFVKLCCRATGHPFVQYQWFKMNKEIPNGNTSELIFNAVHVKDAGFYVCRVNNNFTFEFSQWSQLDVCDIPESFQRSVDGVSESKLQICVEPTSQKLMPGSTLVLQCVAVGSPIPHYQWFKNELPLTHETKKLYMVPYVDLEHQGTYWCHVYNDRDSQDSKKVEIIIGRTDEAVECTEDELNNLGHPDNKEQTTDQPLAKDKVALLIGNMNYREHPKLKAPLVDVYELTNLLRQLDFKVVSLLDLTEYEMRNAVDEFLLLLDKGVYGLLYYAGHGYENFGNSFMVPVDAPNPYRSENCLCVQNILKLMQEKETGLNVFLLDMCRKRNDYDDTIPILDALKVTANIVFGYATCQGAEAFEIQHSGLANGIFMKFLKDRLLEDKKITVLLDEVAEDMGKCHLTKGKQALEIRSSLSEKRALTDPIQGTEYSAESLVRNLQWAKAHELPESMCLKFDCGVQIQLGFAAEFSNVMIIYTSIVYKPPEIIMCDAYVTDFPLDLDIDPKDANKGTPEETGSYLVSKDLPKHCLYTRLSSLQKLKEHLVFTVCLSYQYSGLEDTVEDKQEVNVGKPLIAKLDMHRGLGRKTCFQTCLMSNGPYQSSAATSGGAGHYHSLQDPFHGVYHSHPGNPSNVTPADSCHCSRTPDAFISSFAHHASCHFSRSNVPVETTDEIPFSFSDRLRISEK

Cathepsin B [2] = target: T2, Cathepsin B (Homo sapiens, UniProt P07858); assay: Inhibition of recombinant human cathepsin B expressed in Escherichia coli BL21 (DE3) using zRR-AMC as substrate measured after 2 hrs by fluorescence plate reader assay
Cathepsin B [3] = target: T2, Cathepsin B; assay: Covalent binding affinity to cathepsin B in wild type human Jurkat cell lysate assessed as ABP labeling by protein-compound adduct formation at 3 uM after 3 hrs by laser imaging analysis; type: subcellular
[4] = target: T3, Mucosa-associated lymphoid tissue lymphoma translocation protein 1 (Homo sapiens) (UniProt Q9UDY8); assay: Binding affinity to MALT1 in human Jurkat cells assessed as ABP labeling of protein at 3 uM pretreated with compound for 3 hrs followed by PMA/ionomycin stimulation for 30 mins by laser imaging analysis; type: cell-based
T3 sequence (whole entry): T1 sequence (Q9UDY8 whole entry)

[5] = target: T3, Mucosa-associated lymphoid tissue lymphoma translocation protein 1 (Homo sapiens); assay: Covalent binding affinity to MALT1 in wild type human Jurkat cell lysate assessed as PMA/ionomycin stimulated ABP labeling by protein-compound adduct formation at 3 uM pretreated with PMA/ionomycin for 30 mins followed by compound treatment after 3 hrs by laser imaging analysis; type: subcellular
Homo sapiens = species: Homo sapiens; assay: Covalent binding affinity to MALT1 C453/A mutant (unknown origin) assessed as PMA/ionomycin stimulated ABP labeling of MALT1 by measuring cleavage of CYLD substrate using CYLD as substrate at 3 uM pretreated with PMA/ionomycin for 30 mins followed by compound treatment and further incubated for 3 hrs by Western blot analysis
Cathepsin B [6] = target: T2, Cathepsin B; assay: Binding affinity to cathepsin B in human Jurkat cells assessed as ABP labeling of protein at 3 uM pretreated with compound for 3 hrs followed by PMA/ionomycin stimulation for 30 mins by laser imaging analysis; type: cell-based
[7] = target: T3, Mucosa-associated lymphoid tissue lymphoma translocation protein 1 (Homo sapiens); assay: Inhibition of […] wild type human N-terminal GST-tagged MALT1 catalytic domain (325 to 760 residues) expressed in Escherichia coli BL21 (DE3) assessed as inactivation rate constant using Ac-LVPipR-ACC as substrate measured after 2 hrs by microplate reader assay
[8] = target: T3, Mucosa-associated lymphoid tissue lymphoma translocation protein 1 (Homo sapiens); assay: Inhibition of full length wild type human N-terminal GST-tagged MALT1 catalytic domain (325 to 760 residues) expressed in Escherichia coli BL21 (DE3) assessed as increase in fluorescence at 0.5 uL using Ac-LRSR-AMC as substrate preincubated for 20 mins followed by substrate addition measured after 60 to 120 mins by fluorescence plate reader assay
Cathepsin B [9] = target: T2, Cathepsin B; assay: Inhibition of recombinant human cathepsin B expressed in Escherichia coli BL21 (DE3) assessed as inactivation rate constant using zRR-AMC as substrate measured after 2 hrs by fluorescence plate reader assay
[10] = target: T3, Mucosa-associated lymphoid tissue lymphoma translocation protein 1 (Homo sapiens); assay: Covalent binding affinity to Streptag2-tagged MALT1 stably reconstituted in human knockout Jurkat cells assessed as PMA/ionomycin stimulated ABP labeling of MALT1 by measuring cleavage of CYLD substrate using CYLD as substrate at 3 uM pretreated for PMA/ionomycin with 30 mins followed by compound treatment and further incubated for 3 hrs by Western blot analysis; type: cell-based
[11] = target: T3, Mucosa-associated lymphoid tissue lymphoma translocation protein 1 (Homo sapiens); assay: Inhibition of MALT1 in human HBL1 assessed as assessed as reduction in Relb substrate cleavage at 3 to 30 uM after 5 hrs in presence of proteasome inhibitor by Western blot analysis
Cathepsin B [12] = target: T2, Cathepsin B; assay: Inhibition of recombinant human cathepsin B expressed in Escherichia coli BL21 (DE3) assessed as increase in fluorescence at 0.5 uL using zRR-AMC as substrate measured after 60 to 80 mins by fluorescence plate reader assay
[13] = target: T3, Mucosa-associated lymphoid tissue lymphoma translocation protein 1 (Homo sapiens); assay: Inhibition of MALT1 in human HBL1 assessed as assessed as reduction in Relb substrate cleavage after 5 hrs in presence of proteasome inhibitor by Western blot analysis
Cathepsin B [14] = target: T2, Cathepsin B; assay: Inhibition of recombinant human cathepsin B expressed in Escherichia coli BL21 (DE3) assessed as increase in fluorescence at 0.5 uL using zRR-AMC as substrate measured after 60 to 80 mins by fluorescence plate reader assay relative to Z-VRPR-FMK
[15] = target: T3, Mucosa-associated lymphoid tissue lymphoma translocation protein 1 (Homo sapiens); assay: (§1) Competitive binding affinity to MALT1 in wild type human Jurkat cell lysate assessed as PMA/ionomycin stimulated ABP labeling by protein-compound adduct formation at 3 uM pretreated with 25 uM of MALT1 inhibitor s-mepazine for 2 hrs followed by PMA/ionomycin stimulation for 30 mins and subsequent compound addition measured after 3 hrs by Western blot analysis; type: subcellular
Cathepsin B [16] = target: T2, Cathepsin B; assay: as §1, with “to cathepsin B” for “to MALT1”, “with 5” for “with 25”, “inhibitor CA-074ME” for “inhibitor s-mepazine”; type: subcellular
[17] = target: T3, Mucosa-associated lymphoid tissue lymphoma translocation protein 1 (Homo sapiens); assay: as §1, with “z-VRPR-FMK” for “s-mepazine”; type: subcellular
Cathepsin B [18] = target: T2, Cathepsin B; assay: as §1, with “to cathepsin B” for “to MALT1”, “inhibitor z-VRPR-FMK” for “inhibitor s-mepazine”; type: subcellular

| Ki [1] | Ki (Cathepsin B [2]) | Activity (Cathepsin B [3]) | Activity [4] | Activity [5] | Activity (Homo sapiens) | Activity (Cathepsin B [6]) | Kinact [7] | inhibition [8] | Kinact (Cathepsin B [9]) | Activity [10] | inhibition [11] | inhibition (Cathepsin B [12]) | inhibition [13] | fold change (FC) (Cathepsin B [14]) | Activity [15] | Activity (Cathepsin B [16]) | Activity [17] | Activity (Cathepsin B [18]) | Structure (SMILES) |
| --- | --- | --- | --- | --- | --- | --- | --- | --- | --- | --- | --- | --- | --- | --- | --- | --- | --- | --- | --- |
| 0.34 µM | 0.63 µM | Active | Active | Active | inactive | Active | 2 ×10⁻³ /s | Active | 9.6 ×10⁻³ /s | Active | inactive | Active |  |  |  |  |  |  | CC1=CC(C)=[N+]2C1=Cc1ccc(CCC(=O)N[C@@H](CC(C)C)C(=O)N[C@@H](CCCNC(=N)N)C(=O)N[C@@H](CO)C(=O)N[C@@H](CCCNC(=N)N)C(=O)COC(=O)c3c(C)cccc3C)n1[B-]2(F)F |
| 0.17 µM | > 10 µM | inactive | inactive | Active | inactive | inactive | 1.7 ×10⁻³ /s | Active |  | Active |  | Active | Dose-dependent effect | 50 |  |  |  |  | CC1=CC(C)=[N+]2C1=C(CCCc1cn(CCCCCC(=O)N[C@@H](CC(C)C)C(=O)N[C@H](C(=O)N3CCCC[C@H]3C(=O)N[C@@H](CCCNC(=N)N)C(=O)COC(=O)c3c(C)cccc3C)C(C)C)nn1)c1c(C)cc(C)n1[B-]2(F)F |
| 0.21 µM | 0.21 µM | Active | Active | Active | inactive | Active | 1.1 ×10⁻³ /s | Active | 4.1 ×10⁻³ /s | Active |  | Active | Dose-dependent effect |  | inactive | inactive | inactive | inactive | CC1=CC(C)=[N+]2C1=C(CCCc1cn(CCCCCC(=O)N[C@@H](CC(C)C)C(=O)N[C@H](C(=O)N[C@@H](CO)C(=O)N[C@@H](CCCNC(=N)N)C(=O)COC(=O)c3c(C)cccc3C)C(C)C)nn1)c1c(C)cc(C)n1[B-]2(F)F |
|  |  |  |  |  |  |  |  | Active |  |  |  | Active |  |  |  |  |  |  | CC(C)[C@H](NC(=O)OCc1ccccc1)C(=O)N[C@@H](CCCNC(=N)N)C(=O)N1CCC[C@H]1C(=O)N[C@@H](CCCNC(=N)N)C(=O)CF |
